Target: T1, EGFR^WT kinase (Homo sapiens, UniProt P00533)
T1 construct: commercial wild-type EGFR kinase (Sigma Aldrich)
Assay: HTRF KinEASE-TK kinase assay
Assay type: biochemical

T1 sequence (P00533 25-1210): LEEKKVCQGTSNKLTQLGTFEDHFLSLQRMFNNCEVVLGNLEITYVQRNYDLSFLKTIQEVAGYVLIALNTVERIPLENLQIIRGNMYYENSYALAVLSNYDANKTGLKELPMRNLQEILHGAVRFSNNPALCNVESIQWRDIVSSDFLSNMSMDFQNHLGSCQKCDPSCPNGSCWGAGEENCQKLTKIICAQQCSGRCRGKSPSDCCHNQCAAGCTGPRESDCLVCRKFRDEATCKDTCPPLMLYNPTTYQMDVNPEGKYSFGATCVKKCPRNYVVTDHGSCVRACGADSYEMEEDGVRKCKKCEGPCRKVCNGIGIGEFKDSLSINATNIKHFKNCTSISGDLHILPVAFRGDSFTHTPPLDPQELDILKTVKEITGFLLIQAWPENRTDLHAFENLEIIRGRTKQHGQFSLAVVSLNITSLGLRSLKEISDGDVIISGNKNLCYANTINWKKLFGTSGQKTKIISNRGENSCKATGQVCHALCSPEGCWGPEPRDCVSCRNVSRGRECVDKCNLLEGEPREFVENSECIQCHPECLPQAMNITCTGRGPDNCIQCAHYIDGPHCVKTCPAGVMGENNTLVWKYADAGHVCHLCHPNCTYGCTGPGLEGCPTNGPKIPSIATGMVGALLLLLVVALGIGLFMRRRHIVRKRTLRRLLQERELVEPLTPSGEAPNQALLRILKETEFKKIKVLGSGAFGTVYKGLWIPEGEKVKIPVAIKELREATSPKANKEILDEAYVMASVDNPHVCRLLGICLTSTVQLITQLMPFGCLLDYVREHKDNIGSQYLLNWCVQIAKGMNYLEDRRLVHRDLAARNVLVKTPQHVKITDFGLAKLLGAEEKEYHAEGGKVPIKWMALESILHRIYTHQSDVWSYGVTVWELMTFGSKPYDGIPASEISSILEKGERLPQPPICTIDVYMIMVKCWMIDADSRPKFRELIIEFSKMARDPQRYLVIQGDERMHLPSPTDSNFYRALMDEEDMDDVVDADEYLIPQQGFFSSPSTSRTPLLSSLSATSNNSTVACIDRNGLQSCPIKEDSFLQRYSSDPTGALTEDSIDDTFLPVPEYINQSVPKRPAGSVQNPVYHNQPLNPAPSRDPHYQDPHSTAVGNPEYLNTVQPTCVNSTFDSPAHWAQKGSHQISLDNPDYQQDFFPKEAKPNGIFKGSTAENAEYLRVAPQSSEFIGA

C=C(C)[C@H]1C=C2[C@H](C)CC[C@H](Cc3c(O)c(C=O)c4c(c3O)C(=O)CC(C)(C)O4)[C@@]2(C)CC1 [R14, Eucarbwenstols D]
IC50: 191 nM

Reference: publication doi:10.1101/2025.02.22.639610v1, “Excavating Podocyte-Protective Targets of phloroglucinol-terpene hybrids Utilizing AI Models and Omics Analysis” (biorxiv, 2025)
